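How tested: cells in 96-well plates exposed to compound for 48 hours at five concentrations. Abbreviation: GI50, concentration required for 50% inhibition of growth. TGI denotes the concentration required for complete inhibition of growth.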
Tests used:
Test in all cases: growth of human tumour cells (NCI), 48 h
SNB-75 CNS = system: SNB-75 CNS
SK-OV-3 ovarian = system: SK-OV-3 ovarian
M14 melanoma = system: M14 melanoma
MOLT-4 leukemia = system: MOLT-4 leukemia
PC-3 prostate = system: PC-3 prostate
IGROV1 ovarian = system: IGROV1 ovarian
NCI-H226 lung = system: NCI-H226 lung
HOP-92 NSCLC = system: HOP-92 NSCLC
MDA-MB-231 breast = system: MDA-MB-231 breast
CAKI-1 renal = system: CAKI-1 renal
HOP-62 NSCLC = system: HOP-62 NSCLC
U251 CNS = system: U251 CNS
A549 NSCLC = system: A549 NSCLC
MCF7 breast = system: MCF7 breast
SF-539 CNS = system: SF-539 CNS
NCI-H522 lung = system: NCI-H522 lung
NCI/ADR-RES ovarian = system: NCI/ADR-RES ovarian
UACC-257 melanoma = system: UACC-257 melanoma
SK-MEL-28 melanoma = system: SK-MEL-28 melanoma
MALME-3M melanoma = system: MALME-3M melanoma
SR leukemia = system: SR leukemia
MDA-MB-435 = system: MDA-MB-435
SF-295 CNS = system: SF-295 CNS
HT29 colon = system: HT29 colon
SK-MEL-2 melanoma = system: SK-MEL-2 melanoma
CCRF-CEM leukemia = system: CCRF-CEM leukemia
HS 578T breast = system: HS 578T breast
ACHN renal = system: ACHN renal
OVCAR-4 ovarian = system: OVCAR-4 ovarian
RXF 393 renal = system: RXF 393 renal
OVCAR-5 ovarian = system: OVCAR-5 ovarian
UO-31 renal = system: UO-31 renal
OVCAR-3 ovarian = system: OVCAR-3 ovarian
NCI-H460 lung = system: NCI-H460 lung
SK-MEL-5 melanoma = system: SK-MEL-5 melanoma
K-562 leukemia = system: K-562 leukemia
OVCAR-8 ovarian = system: OVCAR-8 ovarian
SF-268 CNS = system: SF-268 CNS
EKVX NSCLC = system: EKVX NSCLC
HCT-15 colon = system: HCT-15 colon
786-0 renal = system: 786-0 renal
TK-10 renal = system: TK-10 renal
SN12C renal = system: SN12C renal
KM12 colon = system: KM12 colon
COLO 205 colon = system: COLO 205 colon
DU-145 prostate = system: DU-145 prostate
LOX IMVI melanoma = system: LOX IMVI melanoma
HL-60(TB) leukemia = system: HL-60(TB) leukemia
SNB-19 CNS = system: SNB-19 CNS
UACC-62 melanoma = system: UACC-62 melanoma
SW-620 colon = system: SW-620 colon
T-47D breast = system: T-47D breast
BT-549 breast = system: BT-549 breast
HCT-116 colon = system: HCT-116 colon
NCI-H23 lung = system: NCI-H23 lung
A498 renal = system: A498 renal
HCC-2998 colon = system: HCC-2998 colon
RPMI-8226 leukemia = system: RPMI-8226 leukemia

COc1cc2c(cc1OCCCCCOc1cc3c(cc1OC)C(=O)N1CCC[C@H]1CN3)N=C[C@@H]1CCCN1C2=O
TGI (SNB-75 CNS): 95.2 µM
TGI (SK-OV-3 ovarian): > 100 µM
TGI (M14 melanoma): 10.8 µM
TGI (MOLT-4 leukemia): 9.24 µM
TGI (PC-3 prostate): 61.5 µM
TGI (IGROV1 ovarian): 21.3 µM
TGI (NCI-H226 lung): 29.1 µM
TGI (HOP-92 NSCLC): 75.1 µM
TGI (MDA-MB-231 breast): 9.48 µM
TGI (CAKI-1 renal): 44.1 µM
TGI (HOP-62 NSCLC): 31.5 µM
TGI (U251 CNS): 5.24 µM
TGI (A549 NSCLC): 27 µM
TGI (MCF7 breast): > 100 µM
TGI (SF-539 CNS): 20.4 µM
TGI (NCI-H522 lung): 3.65 µM
TGI (NCI/ADR-RES ovarian): > 100 µM
TGI (UACC-257 melanoma): 31.9 µM
TGI (SK-MEL-28 melanoma): 28.2 µM
TGI (MALME-3M melanoma): 21.6 µM
TGI (SR leukemia): 1.11 µM
TGI (MDA-MB-435): 20.1 µM
TGI (SF-295 CNS): 34 µM
TGI (HT29 colon): 37.3 µM
TGI (SK-MEL-2 melanoma): 11.5 µM
TGI (CCRF-CEM leukemia): 0.592 µM
TGI (HS 578T breast): 50.4 µM
TGI (ACHN renal): 27.6 µM
TGI (OVCAR-4 ovarian): > 100 µM
TGI (RXF 393 renal): 72 µM
TGI (OVCAR-5 ovarian): 69.4 µM
TGI (UO-31 renal): 30.9 µM
TGI (OVCAR-3 ovarian): 44.7 µM
TGI (NCI-H460 lung): > 100 µM
TGI (SK-MEL-5 melanoma): 12.2 µM
TGI (K-562 leukemia): 17.6 µM
TGI (OVCAR-8 ovarian): 24.2 µM
TGI (SF-268 CNS): 61.8 µM
TGI (EKVX NSCLC): > 100 µM
TGI (HCT-15 colon): 43.8 µM
TGI (786-0 renal): 63.2 µM
TGI (TK-10 renal): 63.3 µM
TGI (SN12C renal): 18.7 µM
TGI (KM12 colon): 15.2 µM
TGI (COLO 205 colon): > 100 µM
TGI (DU-145 prostate): > 100 µM
TGI (LOX IMVI melanoma): 3.06 µM
TGI (HL-60(TB) leukemia): 30 µM
TGI (SNB-19 CNS): > 100 µM
TGI (UACC-62 melanoma): 6.72 µM
TGI (SW-620 colon): 23.9 µM
TGI (T-47D breast): > 100 µM
TGI (BT-549 breast): 34.9 µM
TGI (HCT-116 colon): 24.1 µM
TGI (NCI-H23 lung): 20.5 µM

C=CCCC(=O)N1C=CC(=O)[C@H](O)[C@@H]1/C=C/c1ccccc1
GI50 (SNB-75 CNS): 27.4 µM
TGI (SNB-75 CNS): > 32.5 µM
GI50 (SK-OV-3 ovarian): 18.6 µM
TGI (SK-OV-3 ovarian): > 32.5 µM
GI50 (M14 melanoma): 5.17 µM
TGI (M14 melanoma): 16.8 µM
GI50 (MOLT-4 leukemia): 15.6 µM
TGI (MOLT-4 leukemia): > 32.5 µM
GI50 (A498 renal): > 32.5 µM
TGI (A498 renal): > 32.5 µM
GI50 (IGROV1 ovarian): 9.4 µM
TGI (IGROV1 ovarian): > 32.5 µM
GI50 (NCI-H226 lung): 9.57 µM
TGI (NCI-H226 lung): > 32.5 µM
GI50 (HOP-92 NSCLC): 30.8 µM
TGI (HOP-92 NSCLC): > 32.5 µM
GI50 (MDA-MB-231 breast): 18.6 µM
TGI (MDA-MB-231 breast): > 32.5 µM
GI50 (CAKI-1 renal): 25.1 µM
TGI (CAKI-1 renal): > 32.5 µM
GI50 (HOP-62 NSCLC): 13.3 µM
TGI (HOP-62 NSCLC): > 32.5 µM
GI50 (U251 CNS): 7.44 µM
TGI (U251 CNS): > 32.5 µM
GI50 (A549 NSCLC): 18.2 µM
TGI (A549 NSCLC): > 32.5 µM
GI50 (MCF7 breast): 6.55 µM
TGI (MCF7 breast): > 32.5 µM
GI50 (SF-539 CNS): 7.87 µM
TGI (SF-539 CNS): > 32.5 µM
GI50 (NCI-H522 lung): > 32.5 µM
TGI (NCI-H522 lung): > 32.5 µM
GI50 (NCI/ADR-RES ovarian): 6.38 µM
TGI (NCI/ADR-RES ovarian): > 32.5 µM
GI50 (UACC-257 melanoma): 18 µM
TGI (UACC-257 melanoma): > 32.5 µM
GI50 (SK-MEL-28 melanoma): 17.4 µM
TGI (SK-MEL-28 melanoma): > 32.5 µM
GI50 (MALME-3M melanoma): 9.61 µM
TGI (MALME-3M melanoma): > 32.5 µM
GI50 (SR leukemia): 4.28 µM
TGI (SR leukemia): > 32.5 µM
GI50 (MDA-MB-435): 10.7 µM
TGI (MDA-MB-435): > 32.5 µM
GI50 (SF-295 CNS): 10.7 µM
TGI (SF-295 CNS): > 32.5 µM
GI50 (HT29 colon): 14.4 µM
TGI (HT29 colon): > 32.5 µM
GI50 (SK-MEL-2 melanoma): > 32.5 µM
TGI (SK-MEL-2 melanoma): > 32.5 µM
GI50 (CCRF-CEM leukemia): 5.61 µM
TGI (CCRF-CEM leukemia): > 32.5 µM
GI50 (HCC-2998 colon): 11.6 µM
TGI (HCC-2998 colon): > 32.5 µM
GI50 (HS 578T breast): > 32.5 µM
TGI (HS 578T breast): > 32.5 µM
GI50 (ACHN renal): 5.27 µM
TGI (ACHN renal): > 32.5 µM
GI50 (OVCAR-4 ovarian): 5.67 µM
TGI (OVCAR-4 ovarian): > 32.5 µM
GI50 (RXF 393 renal): 29.9 µM
TGI (RXF 393 renal): > 32.5 µM
GI50 (OVCAR-5 ovarian): > 32.5 µM
TGI (OVCAR-5 ovarian): > 32.5 µM
GI50 (UO-31 renal): 4.25 µM
TGI (UO-31 renal): > 32.5 µM
GI50 (OVCAR-3 ovarian): 6.13 µM
TGI (OVCAR-3 ovarian): > 32.5 µM
GI50 (NCI-H460 lung): 6.65 µM
TGI (NCI-H460 lung): > 32.5 µM
GI50 (SK-MEL-5 melanoma): 3.93 µM
TGI (SK-MEL-5 melanoma): 12.3 µM
GI50 (K-562 leukemia): 9.3 µM
TGI (K-562 leukemia): > 32.5 µM
GI50 (OVCAR-8 ovarian): 16 µM
TGI (OVCAR-8 ovarian): > 32.5 µM
GI50 (SF-268 CNS): 7.03 µM
TGI (SF-268 CNS): > 32.5 µM
GI50 (EKVX NSCLC): 7.63 µM
TGI (EKVX NSCLC): > 32.5 µM
GI50 (HCT-15 colon): 2.39 µM
TGI (HCT-15 colon): > 32.5 µM
GI50 (RPMI-8226 leukemia): 15.6 µM
TGI (RPMI-8226 leukemia): > 32.5 µM
GI50 (786-0 renal): 9.84 µM
TGI (786-0 renal): > 32.5 µM
GI50 (TK-10 renal): 21.5 µM
TGI (TK-10 renal): > 32.5 µM
GI50 (SN12C renal): 12.7 µM
TGI (SN12C renal): > 32.5 µM
GI50 (KM12 colon): 16 µM
TGI (KM12 colon): > 32.5 µM
GI50 (COLO 205 colon): 10.9 µM
TGI (COLO 205 colon): > 32.5 µM
GI50 (DU-145 prostate): 10.4 µM
TGI (DU-145 prostate): > 32.5 µM
GI50 (LOX IMVI melanoma): 6.28 µM
TGI (LOX IMVI melanoma): > 32.5 µM
GI50 (HL-60(TB) leukemia): 4.35 µM
TGI (HL-60(TB) leukemia): 28 µM
GI50 (SNB-19 CNS): 17.2 µM
TGI (SNB-19 CNS): > 32.5 µM
GI50 (UACC-62 melanoma): 6.27 µM
TGI (UACC-62 melanoma): 15.6 µM
GI50 (SW-620 colon): 12.8 µM
TGI (SW-620 colon): > 32.5 µM
GI50 (T-47D breast): 15.5 µM
TGI (T-47D breast): > 32.5 µM
GI50 (BT-549 breast): 11 µM
TGI (BT-549 breast): > 32.5 µM
GI50 (HCT-116 colon): 6.24 µM
TGI (HCT-116 colon): > 32.5 µM
GI50 (NCI-H23 lung): 23.6 µM
TGI (NCI-H23 lung): > 32.5 µM
